From US12409139B2, “Stable parenteral formulations of duloxetine” (LEIUTIS PHARMACEUTICALS LLP, priority 2020, dated 2025)
Read-outs that look alike come from different tables or passages of the source.

Legend:
[1] = for Assay (%) / Total Impurities / pH: RT-25° C.
Protocol: The solution state stability of duloxetine was studied in various buffers for 24 hours.
The samples were stored for 24 hours and analyzed for pH, assay and total impurities by standard analytical procedures.

[2] = commercial delayed release (enteric coated) capsules, oral; cited from earlier work
[3] = Acetate Buffer (pH-5.5), Initial
[4] = Acetate Buffer (pH-6.4), Initial
[5] = Aspartic acid + Boric Acid Buffer (pH-5.5), 24 h
[6] = Aspartic acid + Boric Acid Buffer (pH-5.5), Initial
[7] = Aspartic acid + Boric Acid Buffer (pH-6.4), 24 h
[8] = Aspartic acid + Boric Acid Buffer (pH-6.4), Initial
[9] = Glycine Buffer (pH-5.5), Initial
[10] = Glycine Buffer (pH-6.4), Initial
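For Solubility observation in this document: solubility and solution-stability study of the drug dissolved in assorted buffers across a range of pH values.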

With `CNCCC(Oc1cccc2ccccc12)c1cccs1` (single isomer, unassigned; (+)) [duloxetine, (+)-N-methyl-3-(1-naphthalenyloxy)-3-(2-thienyl) propan-1-amine] the “Assay (%)” value ([1]; Acetate Buffer (pH-5.5), 24 h) was 92.4%, the “Total Impurities” value ([1]; Acetate Buffer (pH-5.5), 24 h) was 0.2 and the pH ([1]; Acetate Buffer (pH-5.5), 24 h) was 5.4. The “Assay (%)” value [1, 3] was 93.9%, the “Total Impurities” value [1, 3] was 0.14 and the pH [1, 3] was 5.32. For the same molecule, the “Assay (%)” value ([1]; Acetate Buffer (pH-6.4), 24 h) was 90.3%, the “Total Impurities” value ([1]; Acetate Buffer (pH-6.4), 24 h) was 0.1 and the pH ([1]; Acetate Buffer (pH-6.4), 24 h) was 6.1. For the same molecule, the “Assay (%)” value [1, 4] was 94.3%, the “Total Impurities” value [1, 4] was 0.1 and the pH [1, 4] was 6.38. The “Assay (%)” value [1, 5] was 93.3%, the “Total Impurities” value [1, 5] was 0.5 and the pH [1, 5] was 5.7. The “Assay (%)” value [1, 6] was 93.0%, the “Total Impurities” value [1, 6] was 0.3 and the pH [1, 6] was 5.8. For the same molecule, the “Assay (%)” value [1, 7] was 97.8%, the “Total Impurities” value [1, 7] was 0.5 and the pH [1, 7] was 6.5. The “Assay (%)” value [1, 8] was 97.9%, the “Total Impurities” value [1, 8] was 0.3 and the pH [1, 8] was 6.6. The “Assay (%)” value ([1]; Glycine Buffer (pH-5.5), 24 h) was 104.8%, the “Total Impurities” value ([1]; Glycine Buffer (pH-5.5), 24 h) was 0.2 and the pH ([1]; Glycine Buffer (pH-5.5), 24 h) was 5.5. The “Assay (%)” value [1, 9] was 105%, the “Total Impurities” value [1, 9] was 0.12 and the pH [1, 9] was 5.59. For the same molecule, the “Assay (%)” value ([1]; Glycine Buffer (pH-6.4), 24 h) was 96.6%, the “Total Impurities” value ([1]; Glycine Buffer (pH-6.4), 24 h) was 0.18 and the pH ([1]; Glycine Buffer (pH-6.4), 24 h) was 6.35. For the same molecule, the “Assay (%)” value [1, 10] was 97.7%, the “Total Impurities” value [1, 10] was 0.10 and the pH [1, 10] was 6.23. For the same molecule, the “Solution state stability in terms of assay and total impurities (in words)” value ([1]; acetate buffer at pH-5.5 and pH-6.4 and glycine buffer at pH-5.5 and pH-6.4, 24 hours) was “best results”, the “Solution state stability (in words)” value ([1]; all the buffers tested, stored for 24 hours) was “satisfactory stability” and the Solubility observation (0.1N Sodium hydroxide buffer, pH 4.5, 10 mg/ml) was “Insoluble”. For the same molecule, the Solubility observation (0.1N Sodium hydroxide buffer, pH 5.5, 10 mg/ml) was “Insoluble”, the Solubility observation (0.1N Sodium hydroxide buffer, pH 6.4, 10 mg/ml) was “Insoluble” and the Solubility observation (Acetate buffer, pH 4.5, 10 mg/ml) was “Clear solution”. For the same molecule, the Solubility observation (Acetate buffer, pH 5.5, 10 mg/ml) was “Clear solution”, the Solubility observation (Acetate buffer, pH 6.4, 10 mg/ml) was “Clear solution” and the Solubility observation (Acetate buffer, pH 7.5, 10 mg/ml) was “Clear solution”. For the same molecule, the Solubility observation (Alanine buffer, pH 4.5, 10 mg/ml) was “Clear solution”, the Solubility observation (Alanine buffer, pH 5.5, 10 mg/ml) was “Clear solution” and the Solubility observation (Alanine buffer, pH 6.4, 10 mg/ml) was “Insoluble”. The Solubility observation (Aspartic acid and Boric acid buffer, pH 4.5, 10 mg/ml) was “Clear solution”, the Solubility observation (Aspartic acid and Boric acid buffer, pH 5.5, 10 mg/ml) was “Clear solution” and the Solubility observation (Aspartic acid and Boric acid buffer, pH 6.4, 10 mg/ml) was “Insoluble”. The Solubility observation (Citrate buffer, pH 4.5, 10 mg/ml) was “Insoluble”, the Solubility observation (Citrate buffer, pH 5.5, 10 mg/ml) was “Insoluble” and the Solubility observation (Citrate buffer, pH 6.4, 10 mg/ml) was “Insoluble”. For the same molecule, the Solubility observation (Glycine buffer, pH 4.5, 10 mg/ml) was “Clear solution”, the Solubility observation (Glycine buffer, pH 5.5, 10 mg/ml) was “Clear solution” and the Solubility observation (Glycine buffer, pH 6.4, 10 mg/ml) was “Clear solution”. The Solubility observation (Glycine buffer, pH 7.5, 10 mg/ml) was “Clear solution”, the Solubility observation (Histidine buffer, pH 4.5, 10 mg/ml) was “Insoluble” and the Solubility observation (Histidine buffer, pH 5.5, 10 mg/ml) was “Insoluble”. The Solubility observation (Histidine buffer, pH 6.4, 10 mg/ml) was “Insoluble”, the Solubility observation (Isoleucine buffer, pH 4.5, 10 mg/ml) was “Clear solution” and the Solubility observation (Isoleucine buffer, pH 5.5, 10 mg/ml) was “Clear solution”. For the same molecule, the Solubility observation (Isoleucine buffer, pH 6.4, 10 mg/ml) was “Clear solution”, the Solubility observation (Isoleucine buffer, pH 7.5, 10 mg/ml) was “Clear solution” and the Solubility observation (Lactic acid buffer, pH 4.5, 10 mg/ml) was “Clear solution”. The Solubility observation (Lactic acid buffer, pH 5.5, 10 mg/ml) was “Clear solution”, the Solubility observation (Lactic acid buffer, pH 6.4, 10 mg/ml) was “Clear solution” and the Solubility observation (Lactic acid buffer, pH 7.5, 10 mg/ml) was “Clear solution”. For the same molecule, the Solubility observation (Leucine buffer, pH 4.5, 10 mg/ml) was “Clear solution”, the Solubility observation (Leucine buffer, pH 5.5, 10 mg/ml) was “Clear solution” and the Solubility observation (Leucine buffer, pH 6.4, 10 mg/ml) was “Clear solution”. The Solubility observation (Leucine buffer, pH 7.5, 10 mg/ml) was “Clear solution”, the Solubility observation (Lysine buffer, pH 4.5, 10 mg/ml) was “Insoluble” and the Solubility observation (Lysine buffer, pH 5.5, 10 mg/ml) was “Insoluble”. For the same molecule, the Solubility observation (Lysine buffer, pH 6.4, 10 mg/ml) was “Insoluble”, the Solubility observation (Meglumine buffer, pH 4.5, 10 mg/ml) was “Insoluble” and the Solubility observation (Meglumine buffer, pH 5.5, 10 mg/ml) was “Insoluble”. For the same molecule, the Solubility observation (Meglumine buffer, pH 6.4, 10 mg/ml) was “Insoluble”, the Solubility observation (Methionine buffer, pH 4.5, 10 mg/ml) was “Clear solution” and the Solubility observation (Methionine buffer, pH 5.5, 10 mg/ml) was “Clear solution”. The Solubility observation (Methionine buffer, pH 6.4, 10 mg/ml) was “Clear solution”, the Solubility observation (Methionine buffer, pH 7.5, 10 mg/ml) was “Clear solution” and the Solubility observation (Phenyl alanine buffer, pH 4.5, 10 mg/ml) was “Clear solution”. For the same molecule, the Solubility observation (Phenyl alanine buffer, pH 5.5, 10 mg/ml) was “Clear solution”, the Solubility observation (Phenyl alanine buffer, pH 6.4, 10 mg/ml) was “Insoluble” and the Solubility observation (Phosphate buffer, pH 4.5, 10 mg/ml) was “Clear solution”. For the same molecule, the Solubility observation (Phosphate buffer, pH 5.5, 10 mg/ml) was “Insoluble”, the Solubility observation (Phosphate buffer, pH 6.4, 10 mg/ml) was “Insoluble” and the Solubility observation (Proline buffer, pH 4.5, 10 mg/ml) was “Clear solution”. For the same molecule, the Solubility observation (Proline buffer, pH 5.5, 10 mg/ml) was “Clear solution”, the Solubility observation (Proline buffer, pH 6.4, 10 mg/ml) was “Clear solution” and the Solubility observation (Proline buffer, pH 7.5, 10 mg/ml) was “Clear solution”. For the same molecule, the Solubility observation (Serine buffer, pH 4.5, 10 mg/ml) was “Clear solution”, the Solubility observation (Serine buffer, pH 5.5, 10 mg/ml) was “Clear solution” and the Solubility observation (Serine buffer, pH 6.4, 10 mg/ml) was “Clear solution”. For the same molecule, the Solubility observation (Serine buffer, pH 7.5, 10 mg/ml) was “Insoluble”, the Solubility observation (Sodium phosphate buffer, pH 4.5, 10 mg/ml) was “Clear solution” and the Solubility observation (Sodium phosphate buffer, pH 5.5, 10 mg/ml) was “Insoluble”. For the same molecule, the Solubility observation (Sodium phosphate buffer, pH 6.4, 10 mg/ml) was “Insoluble”, the Solubility observation (Succinate buffer, pH 4.5, 10 mg/ml) was “Clear solution” and the Solubility observation (Succinate buffer, pH 5.5, 10 mg/ml) was “Insoluble”. The Solubility observation (Succinate buffer, pH 6.4, 10 mg/ml) was “Insoluble”, the Solubility observation (Tartaric acid buffer, pH 4.5, 10 mg/ml) was “Insoluble” and the Solubility observation (Tartaric acid buffer, pH 5.5, 10 mg/ml) was “Insoluble”. The Solubility observation (Tartaric acid buffer, pH 6.4, 10 mg/ml) was “Insoluble”, the Solubility observation (Tris buffer, pH 4.5, 10 mg/ml) was “Insoluble” and the Solubility observation (Tris buffer, pH 5.5, 10 mg/ml) was “Insoluble”. For the same molecule, the Solubility observation (Tris buffer, pH 6.4, 10 mg/ml) was “Insoluble”, the Solubility observation (Tryptophan buffer, pH 4.5, 10 mg/ml) was “Clear solution” and the Solubility observation (Tryptophan buffer, pH 5.5, 10 mg/ml) was “Clear solution”. For the same molecule, the Solubility observation (Tryptophan buffer, pH 6.4, 10 mg/ml) was “Clear solution”, the Solubility observation (Tryptophan buffer, pH 7.5, 10 mg/ml) was “Clear solution” and the Solubility observation (Valine buffer, pH 4.5, 10 mg/ml) was “Clear solution”. For the same molecule, the Solubility observation (Valine buffer, pH 5.5, 10 mg/ml) was “Clear solution”, the Solubility observation (Valine buffer, pH 6.4, 10 mg/ml) was “Clear solution” and the Solubility observation (Valine buffer, pH 7.5, 10 mg/ml) was “Clear solution”. The “time for the absorption to begin” value [2] was 2 h.
